According to paper PMC8373216, “Development and Preclinical Evaluation of New Inhaled Lipoglycopeptides for the Treatment of Persistent Pulmonary Methicillin-Resistant Staphylococcus aureus Infections” (Antimicrobial Agents and Chemotherapy, 2021):
Converted amounts (≈) assume the structure as drawn. Where two headings read alike, the source gives them in different places.

Key:
E. coli = assay: Expanded panel broth microdilution MIC; assay type: cell-based; settings: Escherichia coli
P. mirabilis = assay: Expanded panel broth microdilution MIC; assay type: cell-based; settings: Proteus mirabilis, ATCC43071
Burkholderia cepacia = assay: Expanded panel broth microdilution MIC; assay type: cell-based
Pseudomonas aeruginosa = assay: Expanded panel broth microdilution MIC; assay type: cell-based
Haemophilus influenzae = assay: Expanded panel broth microdilution MIC; assay type: cell-based
S. marcescens = assay: Expanded panel broth microdilution MIC; assay type: cell-based; settings: Serratia marcescens, ATCC43862
C. freundii = assay: Expanded panel broth microdilution MIC; assay type: cell-based; settings: Citrobacter freundii
P. vulgaris = assay: Expanded panel broth microdilution MIC; assay type: cell-based; settings: Proteus vulgaris
[1] = test system: Peptostreptococcus micros; assay: Expanded panel broth microdilution MIC; assay type: cell-based
H. parainfluenzae = assay: Expanded panel broth microdilution MIC; assay type: cell-based; settings: Haemophilus parainfluenzae
Moraxella catarrhalis = assay: Expanded panel broth microdilution MIC; assay type: cell-based
K. pneumoniae = assay: Expanded panel broth microdilution MIC; assay type: cell-based
E. cloacae = assay: Expanded panel broth microdilution MIC; assay type: cell-based; settings: Enterobacter cloacae
Acinetobacter baumannii = assay: Expanded panel broth microdilution MIC; assay type: cell-based
[2] = assay type: physicochemical; settings: pH 8
Description: (§1) 40 to the primary metabolite.
(§2) 41 percent degradation is defined as follows:
(§3) [LLLLPPLL ] + [MMPPPPDDMM DDMMDDPPPP ]
(§4) 45 Enzymes studied include :
(§5) 108 Table S1: Enzyme hydrolysis of RV62 and RV94 was measured as a function of time in PBS (pH 8) at 37
(§6) 109 °C. Control samples in the absence of enzyme were included as […]. Samples were analyzed
(§7) 110 by HPLC detecting the parent RV derivative (RV62 or RV94).
(§8) RV Percent RV derivative remaining in HPLC chromatograph, % […]

Eggerthella lenta = assay: Expanded panel broth microdilution MIC; assay type: cell-based
[3] = target: T1, Protease from Bacillus Lichenformis (Bacillus licheniformis, UniProt P00780); assay: Enzyme hydrolysis; assay type: in vitro ADME; settings: Bacillus Lichenformis protease 5 U/mL
T1 construct: purchased Sigma Aldrich P5380; host or cells: Bacillus licheniformis
Description: as §1, §2, §3, §4, §5, §6, §7, §8

Protease from Papain = target: T2, Protease from Papain (Carica papaya, UniProt P00784); assay: Enzyme hydrolysis; assay type: in vitro ADME; settings: Papain 5 U/mL
T2 construct: purchased Sigma Aldrich P4762; host or cells: papaya latex
Description: as §1, §2, §3, §4, §5, §6, §7, §8

THP-1 cells = assay: In vitro cellular accumulation; assay type: cell-based; settings: 24 h, 10 to 75 μg/ml
Description: THP-1 cells (TIB-202; ATCC, Manassas, VA; 1 × 10^6 cells/well) were differentiated into macrophages by incubating in 10% fetal bovine serum (FBS; HyClone, Marlborough, MA) supplemented RPMI 1640 medium (HyClone) with 50 ng/ml of phorbol 12-myristate 13-acetate (PMA; Sigma-Aldrich, St. Louis, MO) for 24 h. After a 24 h incubation in fresh medium, cells were treated with RV lipoglycopeptides or comparator drugs at target concentrations in the range of 10 to 75 μg/ml and incubated at 37°C for 24 h. For sample collection, mixtures of cells and medium were transferred into a 1.5-ml microcentrifuge tube followed by centrifugation at 330 × g for 8 min at 4°C. The supernatant was collected to measure the extracellular portion. After washing three times using 1 ml of tris-buffered saline (TBS, 1× solution, pH 7.4, Fisher BioReagents, Waltham, MA), the cell pellet was resuspended in TBS to measure the cellular drug concentration. To confirm mass balance, drug concentrations were also measured from the supernatant and an organic solvent mixture (30% acetonitrile in water) that was used to extract residual drug from the empty wells after the cell mixture was removed. […] Cellular accumulation was expressed as μg of drug per the mass of cell protein measured using a Pierce BCA protein assay kit (Thermo Scientific, Waltham, MA).

T2 sequence (P00784 134-345): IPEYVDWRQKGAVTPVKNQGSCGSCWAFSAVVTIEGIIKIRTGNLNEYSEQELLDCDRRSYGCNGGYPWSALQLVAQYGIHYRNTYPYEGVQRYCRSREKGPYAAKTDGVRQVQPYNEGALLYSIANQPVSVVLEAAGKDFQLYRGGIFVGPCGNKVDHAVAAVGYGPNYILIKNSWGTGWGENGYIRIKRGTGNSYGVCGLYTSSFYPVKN
T1 sequence (P00780 106-379): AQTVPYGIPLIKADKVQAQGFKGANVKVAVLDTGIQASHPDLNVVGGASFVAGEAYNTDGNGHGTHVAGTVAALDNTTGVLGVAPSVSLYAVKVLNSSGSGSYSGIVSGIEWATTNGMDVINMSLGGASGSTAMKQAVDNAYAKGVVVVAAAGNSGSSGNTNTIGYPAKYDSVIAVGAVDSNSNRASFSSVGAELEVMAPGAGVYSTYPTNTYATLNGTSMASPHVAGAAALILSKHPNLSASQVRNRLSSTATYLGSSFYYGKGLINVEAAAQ

## CCCCCCCCCCNCCN[C@@]1(C)C[C@H](O[C@H]2[C@H](Oc3c4cc5cc3Oc3ccc(cc3Cl)[C@@H](O)[C@@H](NC(=O)[C@@H](CC(C)C)NC)C(=O)N[C@@H](CC(N)=O)C(=O)N[C@H]5C(=O)N[C@H]3C(=O)N[C@H](C(=O)N[C@H](C(=O)O)c5cc(O)cc(O)c5-c5cc3ccc5O)[C@H](O)c3ccc(c(Cl)c3)O4)O[C@H](CO)[C@@H](O)[C@@H]2O)O[C@@H](C)[C@H]1O [RV40, N-decylaminoethylvancomycin]
E. coli; ATCC25922, E. coli ATCC 25922, non-ESBL, read-out: MIC
  MIC: > 64 µg/mL
E. coli; E. coli MMX 5684, ESBL (TEM-10), read-out: MIC
  MIC: > 64 µg/mL
P. mirabilis; P. mirabilis ATCC 43071, read-out: MIC
  MIC: > 64 µg/mL
Burkholderia cepacia
  MIC: > 64 µg/mL
Burkholderia cepacia; B. cepacia MMX 9040, read-out: MIC
  MIC: > 64 µg/mL
Pseudomonas aeruginosa
  MIC: > 64 µg/mL
Pseudomonas aeruginosa; ATCC27853, P. aeruginosa ATCC 27853, read-out: MIC
  MIC: > 64 µg/mL
Pseudomonas aeruginosa; P. aeruginosa MMX 2562, MDR, read-out: MIC
  MIC: > 64 µg/mL
Haemophilus influenzae
  MIC range: 16 to 32 µg/mL
Haemophilus influenzae; ATCC49247, H. influenzae ATCC 49247, BL-, read-out: MIC
  MIC: 64 µg/mL (≈ 39.2 µM)
Haemophilus influenzae; H. influenzae MMX 7988, BL+, read-out: MIC
  MIC: 32 µg/mL (≈ 19.6 µM)
S. marcescens; S. marcescens ATCC 43862, read-out: MIC
  MIC: > 64 µg/mL
C. freundii; C. freundii MMX 6602, read-out: MIC
  MIC: > 64 µg/mL
P. vulgaris; P. vulgaris MMX 9373, read-out: MIC
  MIC: > 64 µg/mL
[1]; P. micros, 1 isolate
  MIC: 0.06 µg/mL (≈ 0.0368 µM)
[1]; Parvimonas micra, P. micros MMX 3546, read-out: MIC
  MIC: 0.06 µg/mL (≈ 0.0368 µM)
H. parainfluenzae; H. parainfluenzae MMX 2529, read-out: MIC
  MIC: 16 µg/mL (≈ 9.8 µM)
Moraxella catarrhalis
  MIC range: 1 to 2 µg/mL
Moraxella catarrhalis; ATCC8176, M. catarrhalis ATCC 8176, read-out: MIC
  MIC: 1 µg/mL (≈ 0.613 µM)
Moraxella catarrhalis; ATCC8193, M. catarrhalis ATCC 8193, read-out: MIC
  MIC: 32 µg/mL (≈ 19.6 µM)
Moraxella catarrhalis; M. catarrhalis MMX 3782, read-out: MIC
  MIC: 1 µg/mL (≈ 0.613 µM)
K. pneumoniae; K. pneumoniae MMX 4679, KPC-2
  MIC: > 64 µg/mL
K. pneumoniae; Klebsiella pneumoniae, K. pneumoniae MMX 2542, read-out: MIC
  MIC: > 64 µg/mL
E. cloacae; ATCC49141, E. cloacae ATCC 49141, read-out: MIC
  MIC: > 64 µg/mL
E. cloacae; ATCCBAA1143, E. cloacae ATCC BAA-1143, AmpC, read-out: MIC
  MIC: > 64 µg/mL
Acinetobacter baumannii; Acinetobacter baumannii
  MIC range: 32 to 64 µg/mL
Acinetobacter baumannii; Acinetobacter baumannii, A. baumannii MMX 3372, MDR, read-out: MIC
  MIC: 64 µg/mL (≈ 39.2 µM)
Acinetobacter baumannii; Acinetobacter baumannii, A. baumannii MMX 6974, colistinR, read-out: MIC
  MIC: 32 µg/mL (≈ 19.6 µM)
Acinetobacter baumannii; Acinetobacter baumannii, NCTC13304, A. baumannii NCTC 13304, OXA-27, read-out: MIC
  MIC: > 64 µg/mL

## CCCCCCCCCCNC(=O)CNC1(C)CC(OC2C(Oc3c4cc5cc3Oc3ccc(cc3Cl)C(O)C3NC(=O)C(NC(=O)C5NC(=O)C(CC(N)=O)NC(=O)C(NC(=O)C(CC(C)C)NC)C(O)c5ccc(c(Cl)c5)O4)c4ccc(O)c(c4)-c4c(O)cc(O)cc4C(C(=O)O)NC3=O)OC(CO)C(O)C2O)OC(C)C1O (centres unmarked) [RV94]
[2]; 0 h
  Percent RV derivative remaining in HPLC chromatograph: 99.74%
[2]; 1 h
  Percent RV derivative remaining in HPLC chromatograph: 99.54%
[2]; 24 h
  Percent RV derivative remaining in HPLC chromatograph: 98.89%
Eggerthella lenta; ATCC43055, E. lenta ATCC 43055, read-out: MIC
  MIC: 0.008 µg/mL (≈ 0.00486 µM)
Eggerthella lenta; E. lenta, 1 isolate, read-out: MIC
  MIC: 0.008 µg/mL (≈ 0.00486 µM)
[3]; 1 h
  Percent RV derivative remaining in HPLC chromatograph: 99.47%
[3]; 24 h
  Percent RV derivative remaining in HPLC chromatograph: 99.43%
[3]; PBS pH 8, 37 °C, 0 h
  Percent RV derivative remaining in HPLC chromatograph: 99.76%
Protease from Papain; 1 h
  Percent RV derivative remaining in HPLC chromatograph: 99.39%
Protease from Papain; 24 h
  Percent RV derivative remaining in HPLC chromatograph: 98.31%
Protease from Papain; PBS pH 8, 37 °C, 0 h
  Percent RV derivative remaining in HPLC chromatograph: 99.46%
THP-1 cells
  Cellular accumulation, fold improvement over telavancin: 4 fold
  Cellular accumulation, fold improvement over vancomycin: 2 fold

## CCCCCCCCCCNCCN[C@@]1(C)C[C@H](O[C@H]2[C@H](Oc3c4cc5cc3Oc3ccc(cc3Cl)[C@@H](O)[C@@H](NC(=O)[C@@H](CC(C)C)NC)C(=O)N[C@@H](CC(N)=O)C(=O)N[C@H]5C(=O)N[C@H]3C(=O)N[C@H](C(=O)N[C@H](C(=O)O)c5cc(O)c(CNCP(=O)(O)O)c(O)c5-c5cc3ccc5O)[C@H](O)c3ccc(c(Cl)c3)O4)O[C@H](CO)[C@@H](O)[C@@H]2O)O[C@@H](C)[C@H]1O [Telavancin, telavancin]
[1]; P. micros, 1 isolate
  MIC: 0.12 µg/mL (≈ 0.0684 µM)
[1]; Parvimonas micra
  MIC: 0.12 µg/mL (≈ 0.0684 µM)

## CN[C@H](CC(C)C)C(=O)N[C@H]1C(=O)N[C@@H](CC(N)=O)C(=O)N[C@H]2C(=O)N[C@H]3C(=O)N[C@H](C(=O)N[C@H](C(=O)O)c4cc(O)cc(O)c4-c4cc3ccc4O)[C@H](O)c3ccc(c(Cl)c3)Oc3cc2cc(c3O[C@@H]2O[C@H](CO)[C@@H](O)[C@H](O)[C@H]2O[C@H]2C[C@](C)(N)[C@H](O)[C@H](C)O2)Oc2ccc(cc2Cl)[C@H]1O [Vancomycin, vancomycin]
E. coli
  MIC: > 64 µg/mL
E. coli; ATCC25922
  MIC: > 64 µg/mL
P. mirabilis
  MIC: > 64 µg/mL
Burkholderia cepacia
  MIC: > 64 µg/mL
Eggerthella lenta
  MIC: 0.5 µg/mL (≈ 0.345 µM)
Eggerthella lenta; ATCC43055
  MIC: 0.5 µg/mL (≈ 0.345 µM)
Pseudomonas aeruginosa
  MIC: > 64 µg/mL
Pseudomonas aeruginosa; ATCC27853
  MIC: > 64 µg/mL
Haemophilus influenzae
  MIC: 64 µg/mL (≈ 44.2 µM)
Haemophilus influenzae; ATCC49247
  MIC: > 64 µg/mL
S. marcescens
  MIC: > 64 µg/mL
C. freundii
  MIC: > 64 µg/mL
P. vulgaris
  MIC: > 64 µg/mL
H. parainfluenzae
  MIC: 64 µg/mL (≈ 44.2 µM)
Moraxella catarrhalis
  MIC: 16 µg/mL (≈ 11 µM)
Moraxella catarrhalis; ATCC8176
  MIC: 32 µg/mL (≈ 22.1 µM)
Moraxella catarrhalis; ATCC8193
  MIC: 64 µg/mL (≈ 44.2 µM)
K. pneumoniae; K. pneumoniae MMX 4679, KPC-2
  MIC: > 64 µg/mL
K. pneumoniae; Klebsiella pneumoniae
  MIC: > 64 µg/mL
E. cloacae; ATCC49141
  MIC: > 64 µg/mL
E. cloacae; ATCCBAA1143
  MIC: > 64 µg/mL
Acinetobacter baumannii; A. baumannii MMX 6974, colistinR
  MIC: > 64 µg/mL
Acinetobacter baumannii; Acinetobacter baumannii
  MIC: > 64 µg/mL
Acinetobacter baumannii; Acinetobacter baumannii, NCTC13304
  MIC: > 64 µg/mL
